Assay results: paper PMC5688144, “Assay interference and off-target liabilities of reported histone acetyltransferase inhibitors” (Nature Communications, 2017)
Entries after “also recorded” stand apart in the source; their conditions may differ.

Experiments:
human La antigen = target: T1, human La antigen (Homo sapiens, UniProt P05455, T302N); test: ALARM NMR; type: binding; conditions: 400 μM compound; for ALARM NMR, (-) DTT: 0 mM DTT; for ALARM NMR, (+) DTT: DTT present; for ALARM NMR interpretation: with and without DTT; for ALARM NMR readout: overall readout
T1 construct: amino acids 100–324 of the human La antigen (plus T302N mutation); 6xHis (N); 6xHis (C); host or cells: Escherichia coli Rosetta cells
T1 sequence (P05455 100-324 T302N): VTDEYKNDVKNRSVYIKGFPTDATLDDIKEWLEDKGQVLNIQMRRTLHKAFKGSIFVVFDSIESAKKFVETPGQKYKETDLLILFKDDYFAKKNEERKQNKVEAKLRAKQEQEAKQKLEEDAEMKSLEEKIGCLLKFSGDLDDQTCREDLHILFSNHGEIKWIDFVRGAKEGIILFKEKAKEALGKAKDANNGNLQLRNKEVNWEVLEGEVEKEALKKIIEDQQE
From the text: The gene encoding amino acids 100–324 of the human La antigen (plus T302N mutation) was cloned into pET28b + vector (Novagen) with both an N- and C-terminal 6xHis tag (addgene.org, plasmid ID 90209). The sequence identity of the ALARM NMR plasmid construct was verified by Sanger sequencing of the transgene region and next-generation sequencing of the whole plasmid.
Plasmid was transformed into Escherichia coli Rosetta cells (Novagen) and cultured in M9 minimal media. The La antigen was labeled by adding ^13C-labeled amino acid precursors ([3-^13C]-α-ketobutyrate and [3,3′-^13C]-α-ketoisovalerate sodium salts; Cambridge Isotope Laboratories; 250 mg L^−1 final concentrations) to culture medium 30 min before induction with IPTG (1 mM final concentration). Bacteria were collected after incubation at 25 °C for 8 h and washed with ice-cold phosphate-buffered saline (PBS). Washed cells were lysed by French press in ice-cold lysis buffer (50 mM Tris, pH 7.6, 300 mM NaCl, 10% glycerol (v/v), 5 mM β-mercaptoethanol (BME), 5 mM imidazole, 2 mM MgCl2, benzonase, and protease inhibitor cocktail), followed by an additional brief sonication step (3 × 15 s pulse sequence) on ice. This lysed solution was centrifuged (30,000×g for 30 min, two cycles) to remove cellular debris, then loaded onto a pre-washed Ni-NTA bead column (Qiagen) kept at 4 °C and washed with buffer (50 mM Tris, pH 7.6, 300 mM NaCl, 10% glycerol (v/v), 5 mM BME, 5 mM imidazole). The La antigen was eluted with an elution buffer (50 mM Tris, pH 7.6, 300 mM NaCl, 10% glycerol (v/v), 5 mM BME, imidazole gradient ranging from 5 mM to 0.5 M). […] Aliquots were flash-frozen in liquid N2 and stored at −80 °C until further use. Before use, aliquots of ~150 μM protein were incubated in the presence of 20 mM DTT at 37 °C for 1 h, then dialyzed (25 mM sodium phosphate buffer, pH 7.0 (no DTT)) in 16 h cycles at 4 °C with constant nitrogen bubbling and with gentle stirring, for three total buffer cycles.
For standard testing conditions, the [^1H-^13C]-HMQC spectra were acquired in 25 mM sodium phosphate buffer, pH 7.0, 10% D2O (v/v; CIL) ± 400 μM test compounds delivered from the aforementioned stock solutions, and ± 20 mM non-deuterated DTT. Final concentration of DMSO was 4.0% (v/v). Reaction solutions were mixed, then centrifuged for 5 min (1000×g) in non-binding 384-well microplates at RT, then incubated at 37 °C for 1 h and then 30 °C for 15 h before obtaining spectra. Samples were checked for evidence of gross precipitation. Data were recorded at 298 K on a Bruker UltraShield 700 MHz NMR spectrometer equipped with a Bruker 1.7 mm TCI Cryoprobe and Bruker SampleJet autosampler. Samples were tested at 50 μM protein concentrations using 16 scans, 2048 complex points in F2, and 80 points in F1 using standard protein [^1H-^13C]-HMQC and water suppression pulse sequences.
Data were analyzed in TopSpin™ 3.5 (Bruker). Reactions were normalized to equivalent DMSO controls. Non-reactive compounds were identified by the absence of chemical shifts or changes in peak intensities (^13C-methyl) ± 20 mM DTT.

[1] = UPLC-MS gross compound stability in assay buffer; conditions: 25 mM sodium phosphate, pH 7.0, 30 °C, no GSH or CoA
Method: Select compounds were incubated up to 24 h for additional stability analyses. Chromatograms and mass spectra were qualitatively analyzed for the formation of new peaks and/or loss of parent peaks.

CBP = conditions: cited from earlier work; for IC50: original report, 22 (Supplementary References)

CCCCCCCCCCCCCCCc1cccc(O)c1C(=O)O [Compound 14, Anacardic acid]
ALARM NMR, (-) DTT (human La antigen): Positive | ALARM NMR, (+) DTT (human La antigen): Positive | ALARM NMR interpretation (human La antigen): Nonspecific perturbation

Cc1cc(O)cc(C)c1C=C1C(=O)N(Cc2ccccc2)C(=O)N(Cc2ccccc2)C1=O [Compound 4, EML425]
UPLC-MS buffer stability counter-screen [1]: Grossly stable | ALARM NMR, (-) DTT (human La antigen): Positive | ALARM NMR, (+) DTT (human La antigen): Negative | ALARM NMR readout (human La antigen): positive | ALARM NMR interpretation (human La antigen): Thiol-reactive | IC50 (CBP): 1.1 µM

COc1ccc(S(=O)(=O)ON=C2C=C(C)C(=O)C(C)=C2)cc1 [Compound 5, L002]
UPLC-MS buffer stability counter-screen [1]: Gross degradation observed; loss of parent peak | ALARM NMR, (-) DTT (human La antigen): Positive | ALARM NMR, (+) DTT (human La antigen): Negative | ALARM NMR interpretation (human La antigen): Thiol-reactive | % inhibition, CBP (CBP; @ 100 µM, ref 9 (Supplementary References)): 32%

Cl.Cl.O=C(O)Cn1nnc(-c2ccc(CN(CCCCOc3ccc(CN4CCCC4)cc3)CCc3ccccc3)cc2)n1 [Compound 20, TH1834]
ALARM NMR, (-) DTT (human La antigen): Negative | ALARM NMR, (+) DTT (human La antigen): Negative | ALARM NMR interpretation (human La antigen): Inert as tested

O=C(O[C@@H]1Cc2c(O)cc(O)cc2O[C@@H]1c1cc(O)c(O)c(O)c1)c1cc(O)c(O)c(O)c1 [Compound 10, (-)-Epigallocatechin gallate]
UPLC-MS buffer stability counter-screen [1]: Gross degradation observed; loss of parent peak, appearance of new peaks | ALARM NMR, (-) DTT (human La antigen): Positive | ALARM NMR, (+) DTT (human La antigen): Negative | ALARM NMR interpretation (human La antigen): Thiol-reactive | IC50 (CBP): 50 µM

Plumbagin [Compound 8]
UPLC-MS buffer stability counter-screen [1]: Grossly stable | ALARM NMR, (-) DTT (human La antigen): Positive | ALARM NMR, (+) DTT (human La antigen): Negative | ALARM NMR interpretation (human La antigen): Thiol-reactive

CC1=NN(c2ccc(C(=O)O)cc2)C(=O)/C1=C/c1ccc(-c2cc(C)c(C)cc2[N+](=O)[O-])o1 [Compound 1, C646]
UPLC-MS buffer stability counter-screen [1]: Gross degradation observed; loss of parent peak, appearance of new peaks | ALARM NMR, (-) DTT (human La antigen): positive | ALARM NMR, (+) DTT (human La antigen): Negative | ALARM NMR interpretation (human La antigen): Thiol-reactive

COc1cc(/C=C/C(=O)CC(=O)/C=C/c2ccc(O)c(OC)c2)ccc1O [Compound 11, Curcumin]
UPLC-MS buffer stability counter-screen [1]: Gross degradation observed; loss of parent peak, appearance of new peaks | ALARM NMR, (-) DTT (human La antigen): Partial | ALARM NMR, (+) DTT (human La antigen): Negative | ALARM NMR interpretation (human La antigen): Equivocal

Clc1ccc(-c2csc(NN=C3CCCC3)n2)cc1 [Compound 7, CPTH2]
UPLC-MS buffer stability counter-screen [1]: Gross degradation observed; loss of parent peak, appearance of new peaks | ALARM NMR, (-) DTT (human La antigen): Positive | ALARM NMR, (+) DTT (human La antigen): Negative | ALARM NMR interpretation (human La antigen): Thiol-reactive

C=C1C(=O)O[C@H](CCC)[C@H]1C(=O)O [Compound 6, MB-3]
UPLC-MS buffer stability counter-screen [1]: Grossly stable | ALARM NMR, (-) DTT (human La antigen): Positive | ALARM NMR, (+) DTT (human La antigen): Negative | ALARM NMR interpretation (human La antigen): Thiol-reactive | IC50 (CBP): 500 µM

Cc1cc2c(C(C)C)c(O)c(O)c(C=O)c2c(O)c1-c1c(C)cc2c(C(C)C)c(O)c(O)c(C=O)c2c1O [Compound 16, Gossypol]
ALARM NMR, (-) DTT (human La antigen): Positive | ALARM NMR, (+) DTT (human La antigen): Positive | ALARM NMR interpretation (human La antigen): nonspecific protein perturbation | IC50 (CBP): ~25 µM

CCCC1(c2ccccc2)NC(=O)N(CC(=O)N(C)Cc2c(F)cccc2Cl)C1=O (stereo not drawn) [Compound 21, N-[(2-chloro-6-fluorophenyl)methyl]-2-(2,5-dioxo-4-phenyl-4-propylimidazolidin-1-yl)-N-methylacetamide]
UPLC-MS buffer stability counter-screen [1]: Grossly stable | ALARM NMR, (-) DTT (human La antigen): Negative | ALARM NMR, (+) DTT (human La antigen): Negative | ALARM NMR interpretation (human La antigen): Inert as tested

COc1cc(/C=C/c2cc(/C=C/c3ccc(O)c(OC)c3)n(-c3ccc(C(=O)[O-])cc3)n2)ccc1O.[Na+] [Compound 17, CTK7A]
ALARM NMR, (-) DTT (human La antigen): Positive | ALARM NMR, (+) DTT (human La antigen): Positive | ALARM NMR interpretation (human La antigen): several new peaks independent of DTT; also recorded: Nonspecific perturbation (new peaks)

O=c1c2cccnc2sn1Cc1ccc(C(F)(F)F)cc1 [Compound 3, PU141]
UPLC-MS buffer stability counter-screen [1]: Grossly stable | ALARM NMR, (-) DTT (human La antigen): Positive | ALARM NMR, (+) DTT (human La antigen): Negative | ALARM NMR interpretation (human La antigen): Thiol-reactive

O=C1/C(=C/c2ccc(O)c(Br)c2)CCC/C1=C\c1ccc(O)c(Br)c1 [Compound 12, HAT inhibitor II]
UPLC-MS buffer stability counter-screen [1]: Gross degradation observed; loss of parent peak | ALARM NMR, (-) DTT (human La antigen): Partial | ALARM NMR, (+) DTT (human La antigen): Negative | ALARM NMR interpretation (human La antigen): Equivocal

CCCCCCCc1ccc(CCc2cccc(O)c2C(=O)O)cc1 [Compound 15, MG 149]
ALARM NMR, (-) DTT (human La antigen): Positive | ALARM NMR, (+) DTT (human La antigen): Positive | ALARM NMR interpretation (human La antigen): nonspecific protein perturbation; also recorded: potential aggregator

COc1ccc(/C(Cl)=C(/C=O)c2ccc(OC)cc2)cc1 [Compound 18, Windorphen]
UPLC-MS buffer stability counter-screen [1]: Grossly stable | ALARM NMR, (-) DTT (human La antigen): Negative | ALARM NMR, (+) DTT (human La antigen): Negative | ALARM NMR readout (human La antigen): negative | ALARM NMR interpretation (human La antigen): Inert as tested | IC50 (CBP): 51.3 µM

Garcinol [Compound 13]
ALARM NMR, (-) DTT (human La antigen): Positive | ALARM NMR, (+) DTT (human La antigen): Positive | ALARM NMR interpretation (human La antigen): Nonspecific perturbation

CCCCCCCCCCCC1=C(O)C(=O)C=C(O)C1=O [Compound 9, Embelin]
UPLC-MS buffer stability counter-screen [1]: Grossly stable | ALARM NMR, (-) DTT (human La antigen): Positive | ALARM NMR, (+) DTT (human La antigen): Positive | ALARM NMR interpretation (human La antigen): Thiol-reactive, nonspecific perturbation
